# Legend:
# [1] = system: β1,2-xylosyltransferase; test: Solubilization of xylosyltransferase from microsomes by detergents; format: biochemical, soybean; conditions: for Xylose Transferred to Acceptor (cpm), High Speed Supernatant / Xylose Transferred to Acceptor (cpm), Particulate Suspension: protein 10 mg/ml
# Protocol: In order to purify this glycosyltransferase, it was necessary to solubilize the enzyme from the microsomes. A variety of detergents were tested at different concentrations for their ability to solubilize the xylosyltransferase and maintain its stability. […] The enzymatic activity in the supernatant liquid was then measured in the usual transferase assay.
# [2] = system: β1,2-xylosyltransferase; test: Xylosyltransferase activity assay: transfer of 3H-xylose from UDP-[3H]xylose to oligosaccharide acceptor; format: biochemical, soybean; conditions: for Stimulation of enzyme activity / Effect of cation added to the purified enzyme (in words): 1 mM; for Stimulation of enzyme activity: enzyme dialyzed in the presence of EDTA; for Activity (cpm xylose transferred) with Particulate Enzyme / Activity (cpm xylose transferred) with Purified Enzyme: oligosaccharide as acceptor, gel filtration on Biogel P-4; for Km: purified enzyme, FIG. 8
# Protocol: Reaction mixtures for the assay of β1,2-xylosyltransferase contained the following components in a final volume of 25 μl: 100 mM MES buffer, pH 7.0, 10 mM MnCl2, 0.2% Triton X-100, 5 mM ATP, 0.2 mM UDP-[^3H]xylose (15,000 cpm), and 4 nmol of oligosaccharide acceptor (usually GlcNAc2-Man3-GlcNAc2-tyrosinamide; see structure 4 of FIG. 6, or the asialo-agalacto-oligosaccharide from transferrin). The reaction was started by the addition of 5 μl of the enzyme solution, and incubations were usually at 37° C. for 1 hour. The reaction was stopped by the addition of 100 μl of 1% acetic acid, and the reaction mixtures were chromatographed on a column of Biogel P-4 prepared by placing 8 ml of gel into a 10 ml pipette. The columns were equilibrated with 1% acetic acid, and the product was separated from substrates by elution with 1% acetic acid containing 0.2 M NaCl.
# When more purified enzyme preparations were used in the assays, the radiolabeled product could be separated from the radioactive substrate by ion-exchange chromatography on an Amberlite column (or a column of Dowex-1-Cl^−) contained in a Pasteur pipette. […] Thus the wash can be counted as a measure of radioactive xylose transferred to oligosaccharide. In these assays, it is important to be certain that the enzyme preparation is free of degradative enzymes that cleave UDP-xylose to free xylose.
# [3] = system: β1,2-xylosyltransferase; test: Specificity of nucleoside diphosphate sugar donor for xylosyltransferase; format: biochemical, soybean; conditions: radioactive sugar nucleotide 20,000 cpm, 200 μM, asialo-agalactotransferrin glycopeptide acceptor, 1 hour at 37°; for cpm incorporated into oligosaccharide, Purified Enzyme: about 20 ng protein
# Protocol: The substrate specificity of the xylosyltransferase for the nucleoside diphosphate sugar donor was also examined, using a variety of radiolabeled sugar nucleotides, as presented in Table 4. Each of these substrates was adjusted to have the same specific activity, and they were compared to each other at that activity.
# Enzyme (particulate fraction or purified xylosyltransferase (about 20 ng protein) from UDP-hexanolamine-Sepharose) was incubated with radioactive sugar nucleotide (20,000 cpm; 200 μM) and asialo-agalactotransferrin glycopeptide for 1 hour at 37°. The reaction mixture was then separated on a Biogel P-4 column and radioactivity in oligasaccharide was determined.
# [4] = system: β1,2-xylosyltransferase (56 and 59 kDa bands); test: Photoaffinity labeling of xylosyltransferase with N3-UDP[32P]-xylose; format: binding, soybean; conditions: for Effect of unlabeled nucleoside diphosphate sugar on radiolabel in the 56 and 59 kDa bands: 10 and 100 μM (b69 prints 0.1, 1 and 10 μM for UDP-xylose); for Effect of oligosaccharide on binding of UDP-xylose probe: FIG. 3A lanes 12 and 13
# Protocol: In FIG. 3B, effects of various amounts of acceptor oligosaccharides on labeling with UDP-xylose probe are shown.
# In order to determine which band was really the xylosyltransferase, the enzyme fraction from UDP-hexanolamine-Sepharose was incubated with azido-UDP[^32P]-xylose, and after 30 sec., the mixture was exposed to UV light to activate the azido group.
# Thus, lane 1 is without oligosaccharide acceptor while lanes 2-5 are with 4, 10, 30 and 80 μM oligosaccharide 4 and lanes 6-9 with oligoscacharide 10.
# [5] = system: fucosyltransferase; test: Fucose incorporation from GDP-[3H]fucose into oligosaccharide 4 by soybean particulate enzyme; format: biochemical; conditions: oligosaccharide 4 acceptor
# Protocol: Based on the substrate specificity for oligosaccharide acceptor, it would appear that xylose is added after the action of GlcNAc transferase I and mannosidase II but before the addition of galactose residues to the terminal GlcNAc units. Most of these types of N-linked oligosaccharides also contain an […] L-fucose on the innermost GlcNAc unit. In order to determine whether addition of xylose affects fucose transfer to the oligosaccharide, or vice versa, assays were prepared that contained oligosaccharide 4 as acceptor, radiolabeled nucleoside diphosphate sugar (i.e., either UDP-[^3H]xylose or GDP-[^3H]fucose) and either unlabeled UDP-xylose or unlabeled GDP-fucose. Thus, when the incubation contained radioactive UDP-xylose, various amounts of unlabeled GDP-fucose were added to determine whether addition of fucose would stimulate or inhibit xylose transfer. Likewise, when labeled GDP-fucose was used, the incubations contained unlabeled UDP-xylose. These incubations were done with the soybean particulate enzyme, so that both fucosyltransferase and xylosyltransferase were present.
# [6] = system: β1,2-xylosyltransferase; test: Xylosyltransferase activity assay: transfer of 3H-xylose from UDP-[3H]xylose to oligosaccharide acceptor; format: biochemical, soybean; conditions: donor substrate; 5 nmoles of oligosaccharide 4; FIG. 9
compound,measurement,setting,value
C[C@H](CCC(=O)NCCC[N+](C)(C)CCCS(=O)(=O)[O-])[C@H]1CC[C@H]2[C@@H]3[C@H](O)C[C@@H]4C[C@H](O)CC[C@]4(C)[C@H]3C[C@H](O)[C@]12C [CHAPS],"Xylose Transferred to Acceptor (cpm), High Speed Supernatant",[1]; detergent 1%,541 cpm
same,"Xylose Transferred to Acceptor (cpm), Particulate Suspension",[1]; detergent 1%,2168 cpm
CCCCCCCCCCCCCCCC[n+]1ccccc1.[Cl-] [CPC],"Xylose Transferred to Acceptor (cpm), High Speed Supernatant",[1]; detergent 1%,64 cpm
same,"Xylose Transferred to Acceptor (cpm), Particulate Suspension",[1]; detergent 1%,1341 cpm
[Ca+2].[Cl-].[Cl-] [CaCl2],Stimulation of enzyme activity,[2],15%
[Ca+2] [Ca^++],Effect of cation added to the purified enzyme (in words),[2],no stimulation
[Co+2] [Co^++],Effect of cation added to the purified enzyme (in words),[2],no stimulation
O=C(O)CN(CCN(CC(=O)O)CC(=O)O)CC(=O)O [EDTA],Effect of EDTA on purified xylosyltransferase,"[2]; addition of, or dialysis against",not inhibited
[Fe+3] [Fe^+++],Effect of cation added to the purified enzyme (in words),[2],strongly inhibitory
[Fe+2] [Fe^++],Effect of cation added to the purified enzyme (in words),[2],no stimulation
C[C@@H]1O[C@H](OP(=O)(O)OP(=O)(O)OC[C@H]2O[C@@H](n3cnc4c(=O)[nH]c(N)nc43)[C@H](O)[C@@H]2O)[C@@H](O)[C@H](O)[C@@H]1O [GDP-fucose],Effect of unlabeled GDP-fucose on xylose incorporation,"[2]; high concentrations, oligosaccharide 4 acceptor, particulate enzyme",some inhibition of xylose incorporation
same,"cpm incorporated into oligosaccharide, Particulate Enzyme",[3],1033 cpm
same,"cpm incorporated into oligosaccharide, Purified Enzyme",[3],142 cpm
Nc1nc2c(ncn2[C@@H]2O[C@H](COP(=O)(O)OP(=O)(O)O[C@H]3O[C@H](CO)[C@@H](O)[C@H](O)[C@@H]3O)[C@@H](O)[C@H]2O)c(=O)[nH]1 [GDP-mannose],"cpm incorporated into oligosaccharide, Particulate Enzyme",[3],75 cpm
same,"cpm incorporated into oligosaccharide, Purified Enzyme",[3],59 cpm
[Hg+2] [Hg^++],Effect of cation added to the purified enzyme (in words),[2],strongly inhibitory
CC(=O)N[C@H]1[C@H](O[C@H]2[C@H](O)[C@@H](NC(C)=O)C(O)O[C@@H]2CO)O[C@H](CO)[C@@H](O[C@@H]2O[C@H](CO[C@H]3O[C@H](CO[C@H]4O[C@H](CO)[C@@H](O)[C@H](O)[C@@H]4O[C@H]4O[C@H](CO)[C@@H](O)[C@H](O)[C@@H]4O)[C@@H](O)[C@H](O[C@H]4O[C@H](CO)[C@@H](O)[C@H](O)[C@@H]4O[C@H]4O[C@H](CO)[C@@H](O)[C@H](O)[C@@H]4O)[C@@H]3O)[C@@H](O)[C@H](O[C@H]3O[C@H](CO)[C@@H](O)[C@H](O)[C@@H]3O[C@H]3O[C@H](CO)[C@@H](O)[C@H](O)[C@@H]3O[C@H]3O[C@H](CO)[C@@H](O)[C@H](O)[C@@H]3O)[C@@H]2O)[C@@H]1O (stereo partly shown) [Man9(GlcNAc)2],Activity (cpm xylose transferred) with Particulate Enzyme,[2],48 cpm
same,Activity (cpm xylose transferred) with Purified Enzyme,[2],262 cpm
[Cl-].[Cl-].[Mg+2] [MgCl2],Effect of cation added to the purified enzyme (in words),[2],slight stimulation
same,Stimulation of enzyme activity,[2],11%
[Cl][Mn][Cl] [MnCl2],Effect of cation added to the purified enzyme (in words),[2],slight stimulation
CCCCCCCCO[C@@H]1O[C@H](CO)[C@@H](O)[C@H](O)[C@H]1O [Octylglucoside],"Xylose Transferred to Acceptor (cpm), High Speed Supernatant",[1]; detergent 1%,210 cpm
same,"Xylose Transferred to Acceptor (cpm), Particulate Suspension",[1]; detergent 1%,2395 cpm
[Pb+2] [Pb^++],Effect of cation added to the purified enzyme (in words),[2],strongly inhibitory
C[C@H](CCC(=O)NCCS(=O)(=O)O)[C@H]1CC[C@H]2[C@@H]3[C@H](O)C[C@@H]4C[C@H](O)CC[C@]4(C)[C@H]3C[C@H](O)[C@]12C [Taurocholoate],"Xylose Transferred to Acceptor (cpm), High Speed Supernatant",[1]; detergent 1%,1574 cpm
same,"Xylose Transferred to Acceptor (cpm), Particulate Suspension",[1]; detergent 1%,1570 cpm
CC(=O)N[C@H]1[C@@H](OP(=O)(O)OP(=O)(O)OC[C@H]2O[C@@H](n3ccc(=O)[nH]c3=O)[C@H](O)[C@@H]2O)O[C@H](CO)[C@H](O)[C@@H]1O [UDP-GalNAc],"cpm incorporated into oligosaccharide, Particulate Enzyme",[3],72 cpm
same,"cpm incorporated into oligosaccharide, Purified Enzyme",[3],63 cpm
CC(=O)N[C@H]1[C@@H](OP(=O)(O)OP(=O)(O)OC[C@H]2O[C@@H](n3ccc(=O)[nH]c3=O)[C@H](O)[C@@H]2O)O[C@H](CO)[C@@H](O)[C@@H]1O [UDP-GlcNAc],"cpm incorporated into oligosaccharide, Particulate Enzyme",[3],246 cpm
same,"cpm incorporated into oligosaccharide, Purified Enzyme",[3],128 cpm
O=C(O)[C@H]1O[C@H](OP(=O)(O)OP(=O)(O)OC[C@H]2O[C@@H](n3ccc(=O)[nH]c3=O)[C@H](O)[C@@H]2O)[C@H](O)[C@@H](O)[C@@H]1O [UDP-glucuronic acid],Effect of unlabeled nucleoside diphosphate sugar on radiolabel in the 56 and 59 kDa bands,[4],did not inhibit
O=c1ccn([C@@H]2O[C@H](COP(=O)(O)OP(=O)(O)O[C@H]3OC[C@@H](O)[C@H](O)[C@H]3O)[C@@H](O)[C@H]2O)c(=O)[nH]1 [UDP-xylose],"cpm incorporated into oligosaccharide, Particulate Enzyme",[3],1479 cpm
same,"cpm incorporated into oligosaccharide, Purified Enzyme",[3],2597 cpm
same,Effect of unlabeled nucleoside diphosphate sugar on radiolabel in the 56 and 59 kDa bands,[4],greatly diminished
same,Effect of unlabeled UDP-xylose on incorporation of fucose into oligosaccharide,[5],did not affect the incorporation of fucose
same,Km,[6],~0.1 µM
GlcNAc2Man3(GlcNAc)2-T [Oligosaccharide 4],Ability to serve as acceptor of xylose (in words),[2],best acceptors
same,Activity (cpm xylose transferred) with Particulate Enzyme,[2],3578 cpm
same,Activity (cpm xylose transferred) with Purified Enzyme,[2],3648 cpm
same,Km,[2],~75 µM
same,Effect of oligosaccharide on binding of UDP-xylose probe,[4],greatly stimulated binding of UDP-xylose
GlcNAc2Man3GlcNAc(Fuc)GlcNAc-T [Oligosaccharide 10],Ability to serve as acceptor of xylose (in words),[2],best acceptors
same,Activity (cpm xylose transferred) with Particulate Enzyme,[2],3212 cpm
same,Activity (cpm xylose transferred) with Purified Enzyme,[2],2387 cpm
same,Km,[2],~150 µM
same,Effect of oligosaccharide on binding of UDP-xylose probe,[4],greatly stimulated binding of UDP-xylose
GlcNAc-Man3-5-isomer [Oligosaccharide 9],Ability to serve as acceptor of xylose (in words),[2],completely inactive as an acceptor
same,Activity (cpm xylose transferred) with Purified Enzyme,[2],1194 cpm
GlcNAc-Man3-5′-isomer [Oligosaccharide 8],Effectiveness as xylose acceptor as compared to oligosaccharide 4,[2],about 50%
same,Activity (cpm xylose transferred) with Purified Enzyme,[2],69 cpm
Transferrin: transferrin obtained from Sigma Chemical Co.,Activity (cpm xylose transferred) with Purified Enzyme,[2],106 cpm
Triton x-100,Enzymatic activity recovered in the supernatant liquid,[1]; 1% or 2% detergent in Buffer B,at least 80%
same,"Xylose Transferred to Acceptor (cpm), High Speed Supernatant",[1]; detergent 0.5%,1189 cpm
same,"Xylose Transferred to Acceptor (cpm), Particulate Suspension",[1]; detergent 0.5%,2481 cpm
same,"Xylose Transferred to Acceptor (cpm), High Speed Supernatant",[1]; detergent 1%,2188 cpm
same,"Xylose Transferred to Acceptor (cpm), Particulate Suspension",[1]; detergent 1%,2689 cpm
same,"Xylose Transferred to Acceptor (cpm), High Speed Supernatant",[1]; detergent 2%,2297 cpm
same,"Xylose Transferred to Acceptor (cpm), Particulate Suspension",[1]; detergent 2%,2695 cpm

# From patent publication US6593462B2, “Purified β1,2-xylosyltransferase and uses thereof” (priority 1997, dated 2003)
